Experimental data reported in US8877769B2, “Heteroaryl-substituted urea modulators of fatty acid amide hydrolase” (Janssen Pharmaceutica NV, priority 2008, dated 2014).

Experiments:
[1] = tested on: acute thermal nociception; details: rats; Hargraves test; cited from earlier work
neuropathic pain = details: rats; Chung spinal nerve ligation model; cited from earlier work
spasticity = details: CREAE mice; cited from earlier work
[2] = rat formalin test; cited from earlier work
anxiety = details: rats; zero plus maze; cited from earlier work
thermal nociception [3] = details: rat hot plate test; cited from earlier work
Rat FAAH = biological target: T1, Rat FAAH (Rattus norvegicus, UniProt P97612); assay: Assay Method 2: FAAH assay, 3H-anandamide hydrolysis in cell homogenate; type: biochemical; details: average of results obtained, > value = solubility limit or highest concentration tested
T1 construct: expressed in transfected cells
T1 sequence (P97612 1-579): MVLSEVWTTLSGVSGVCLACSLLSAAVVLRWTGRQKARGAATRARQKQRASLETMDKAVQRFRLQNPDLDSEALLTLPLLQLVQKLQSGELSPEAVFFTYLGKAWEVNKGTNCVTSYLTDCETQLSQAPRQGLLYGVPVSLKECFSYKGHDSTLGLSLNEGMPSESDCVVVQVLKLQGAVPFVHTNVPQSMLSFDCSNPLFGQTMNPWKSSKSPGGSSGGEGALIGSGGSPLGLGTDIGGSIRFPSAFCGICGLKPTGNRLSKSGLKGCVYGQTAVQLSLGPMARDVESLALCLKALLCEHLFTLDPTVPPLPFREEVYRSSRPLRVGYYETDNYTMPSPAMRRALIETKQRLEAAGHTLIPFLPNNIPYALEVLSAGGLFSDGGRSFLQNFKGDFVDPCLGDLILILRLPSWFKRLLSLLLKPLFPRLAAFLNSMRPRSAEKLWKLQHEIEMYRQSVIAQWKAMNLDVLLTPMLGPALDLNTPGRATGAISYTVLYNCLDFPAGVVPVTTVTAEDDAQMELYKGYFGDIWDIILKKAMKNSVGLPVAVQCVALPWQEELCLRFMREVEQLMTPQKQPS

FAAH [4] = biological target: T2, FAAH (Homo sapiens, UniProt O00519); assay: Assay Method 1: FAAH assay, 3H-anandamide hydrolysis in cell homogenate
T2 sequence (O00519 1-579): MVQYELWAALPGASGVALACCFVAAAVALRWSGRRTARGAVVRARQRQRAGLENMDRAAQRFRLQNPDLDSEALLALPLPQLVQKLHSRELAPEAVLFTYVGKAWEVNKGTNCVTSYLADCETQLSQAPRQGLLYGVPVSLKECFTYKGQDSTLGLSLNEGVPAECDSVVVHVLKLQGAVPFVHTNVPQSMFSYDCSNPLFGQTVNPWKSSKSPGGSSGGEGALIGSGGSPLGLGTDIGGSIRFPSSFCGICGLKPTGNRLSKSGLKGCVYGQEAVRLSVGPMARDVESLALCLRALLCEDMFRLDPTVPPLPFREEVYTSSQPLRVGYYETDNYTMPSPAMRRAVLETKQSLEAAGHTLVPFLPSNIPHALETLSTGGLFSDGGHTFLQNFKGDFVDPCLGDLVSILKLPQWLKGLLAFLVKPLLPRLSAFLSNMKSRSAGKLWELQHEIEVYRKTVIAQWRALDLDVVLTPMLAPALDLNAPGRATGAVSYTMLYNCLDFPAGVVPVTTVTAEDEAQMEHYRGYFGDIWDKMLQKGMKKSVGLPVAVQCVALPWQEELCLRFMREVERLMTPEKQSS
Method: The assay mixture consisted of 50 μL of the cell homogenate, 10 μL of the test compound, and 40 μL of anandamide [1-^3H-ethanolamine] (^3H-AEA, Perkin-Elmer, 10.3 Ci/mmol), which was added last, for a final tracer concentration of 80 nM. The reaction mixture was incubated at rt for 1 h. During the incubation, 96-well Multiscreen filter plates (catalog number MAFCNOB50; Millipore, Bedford, Mass., USA) were loaded with 25 μL of activated charcoal (Multiscreen column loader, catalog number MACL09625, Millipore) and washed once with 100 μL of MeOH. […] After the 1 h incubation, 60 μL of the reaction mixture were transferred to the charcoal plates, which were then assembled on top of the DYNEX plates using Centrifuge Alignment Frames (catalog number MACF09604, Millipore). The unbound labeled ethanolamine was centrifuged through to the bottom plate (5 min at 2000 rpm), which was preloaded with the scintillant, as described above. The plates were sealed and left at rt for 1 h before counting on a Hewlett Packard TopCount. • Assay Method 2

thermal nociception [5] = details: rats; tail emersion test; cited from earlier work
FAAH [6] = biological target: T2, FAAH; details: cited from earlier work

| IC50 (Rat FAAH) | IC50 (FAAH [4]) | SMILES | further results |
| --- | --- | --- | --- |
| > 10 µM | > 10000 nM | O=C(Nc1cn2ccccc2n1)N1CCN(Cc2ccc(OC(F)(F)F)c(Cl)c2)CC1 [Example 56, 4-(3-Chloro-4-trifluoromethoxy-benzyl)-piperazine-1-carboxylic acid imidazo[1,2-a]pyridin-2-ylamide] |  |
| 6 µM | 1000 nM | O=C(Nc1ccnc2[nH]ccc12)N1CCN(Cc2cccc(Oc3ccc(Cl)cc3)c2)CC1 [Example 61, 4-[3-(4-Chloro-phenoxy)-benzyl]-piperazine-1-carboxylic acid (1H-pyrrolo[2,3-b]pyridin-4-yl)-amide] |  |
| 0.14 µM | 140 nM | O=C(Nc1cccc2nccn12)N1CCN(Cc2ccc3c(c2)OC(F)(F)O3)CC1 [Example 71, 4-(2,2-Difluoro-benzo[1,3]dioxol-5-ylmethyl)-piperazine-1-carboxylic acid imidazo[1,2-a]pyridin-5-ylamide] |  |
| 0.038 µM | 67 nM | O=C(Nc1cccc2nccn12)N1CCN(Cc2ccc(OC(F)(F)F)c(Cl)c2)CC1 [Example 70, 4-(3-Chloro-4-trifluoromethoxy-benzyl)-piperazine-1-carboxylic acid imidazo[1,2-a]pyridin-5-ylamide] |  |
| > 10 µM | > 10000 nM | O=C(Nc1nc2ccccc2o1)N1CCN(Cc2ccc(OC(F)(F)F)c(Cl)c2)CC1 [Example 67, 4-(3-Chloro-4-trifluoromethoxy-benzyl)-piperazine-1-carboxylic acid benzooxazol-2-ylamide] |  |
| 0.03 µM | 15 nM | O=C(Nc1cnc2cccnn12)N1CCC(Cc2ccc(Cl)c(Cl)c2)CC1 [Example 83, 4-(3,4-Dichlorobenzyl)-N-imidazo[1,2-b]pyridazin-3-ylpiperidine-1-carboxamide] |  |
| 1.6 µM | 1400 nM | O=C(Nc1ccn2ccnc2c1)N1CCN(Cc2ccc3c(c2)OC(F)(F)O3)CC1 [Example 73, 4-(2,2-Difluoro-benzo[1,3]dioxol-5-ylmethyl)-piperazine-1-carboxylic acid imidazo[1,2-a]pyridin-7-ylamide] |  |

Further lines, the compound ahead of its results:

| SMILES | IC50 (Rat FAAH) | IC50 (FAAH [4]) | further results |
| --- | --- | --- | --- |
| Cc1nc(-c2ccccc2)c(-c2ccccc2)n1CCCCCCNC(=O)Oc1ccccc1F [BMS-1] |  |  | analgesic effect [1]: analgesic effect; analgesic effect (neuropathic pain): analgesic effect |
| CCCCCCCCCCCCCCCCS(=O)(=O)F [AM374] |  |  | reduction of spasticity (spasticity): significantly reduce spasticity |
| NC(=O)c1cccc(-c2cccc(OC(=O)NC3CCCCC3)c2)c1 [URB-597] |  |  | analgesic efficacy [2]: analgesic efficacy; efficacy in anxiety model (anxiety): efficacy; analgesic efficacy / activity (thermal nociception [3]): analgesic efficacy |
| O=C(Nc1noc2ncccc12)N1CCN(Cc2cccc(Oc3ccc(SC(F)(F)F)cc3)c2)CC1 [Example 17, 4-[3-(4-Trifluoromethylsulfanyl-phenoxy)-benzyl]-piperazine-1-carboxylic acid isoxazolo[5,4-b]pyridin-3-ylamide] | 0.18 µM | 470 nM |  |
| O=C(Nc1cnc2[nH]ccc2c1)N1CCN(Cc2ccc3c(c2)OC(F)(F)O3)CC1 [Example 44, 4-(2,2-Difluoro-benzo[1,3]dioxol-5-ylmethyl)-piperazine-1-carboxylic acid (1H-pyrrolo[2,3-b]pyridin-5-yl)-amide] | 0.009 µM | 16 nM |  |
| O=C(CCCCCCc1ccccc1)c1ncc(-c2ccccn2)o1 [OL-135] |  |  | analgesic activity (thermal nociception [5]): analgesic activity; inhibition of FAAH (FAAH [6]): potent inhibitor; analgesic efficacy / activity (thermal nociception [3]): analgesic activity |
| O=C(Nc1noc2ncccc12)N1CCN(Cc2cccc(Oc3cccc(OC(F)(F)F)c3)c2)CC1 [Example 36, 4-[3-(3-Trifluoromethoxy-phenoxy)-benzyl]-piperazine-1-carboxylic acid isoxazolo[5,4-b]pyridin-3-ylamide] | 6 µM | 1400 nM |  |
| O=C(Nc1noc2ncccc12)N1CCN(Cc2cccc(Oc3ccc(F)c(F)c3)c2)CC1 [Example 26, 4-[3-(3,4-Difluoro-phenoxy)-benzyl]-piperazine-1-carboxylic acid isoxazolo[5,4-b]pyridin-3-ylamide] | > 10 µM | 3200 nM |  |
| O=C(Nc1noc2ncccc12)N1CCN(Cc2ccc3cc[nH]c3c2)CC1 [Example 9] | > 10 µM | > 10000 nM |  |
| O=C(Nc1noc2ncccc12)N1CCN(Cc2ccc(Cl)c(Cl)c2)CC1 [Example 13, 4-(3,4-Dichloro-benzyl)-piperazine-1-carboxylic acid isoxazolo[5,4-b]pyridin-3-ylamide] | 3 µM | 460 nM |  |
| O=C(Nc1noc2ncccc12)N1CCN(Cc2ccc(Br)cc2)CC1 [Example 11, 4-(4-Bromo-benzyl)-piperazine-1-carboxylic acid isoxazolo[5,4-b]pyridin-3-ylamide] | > 10 µM | > 10000 nM |  |
| O=C(Nc1noc2ncccc12)N1CCN(Cc2ccc3c(c2)OCO3)CC1 [Example 7, 4-Benzo[1,3]dioxol-5-ylmethyl-piperazine-1-carboxylic acid isoxazolo[5,4-b]pyridin-3-ylamide] | > 10 µM | > 10000 nM |  |
| O=C(Nc1noc2ncccc12)N1CCN(Cc2cccc(Oc3ccc(OCC(F)(F)F)cc3)c2)CC1 [Example 33, 4-{3-[4-(2,2,2-Trifluoro-ethoxy)-phenoxy]-benzyl}-piperazine-1-carboxylic acid isoxazolo[5,4-b]pyridin-3-ylamide] | 0.2 µM | 200 nM |  |
| O=C(Nc1ccc2nccn2c1)N1CCN(Cc2ccc3c(c2)OC(F)(F)O3)CC1 [Example 51, 4-(2,2-Difluoro-benzo[1,3]dioxol-5-ylmethyl)-piperazine-1-carboxylic acid imidazo[1,2-a]pyridin-6-ylamide] | > 10 µM | > 10000 nM |  |
| O=C(Nc1ccc2ncoc2c1)N1CCN(Cc2ccc3c(c2)OC(F)(F)O3)CC1 [Example 47, 4-(2,2-Difluoro-benzo[1,3]dioxol-5-ylmethyl)-piperazine-1-carboxylic acid benzooxazol-6-ylamide] | 3 µM | 2000 nM |  |
